Data from patent US20240158446A1, “CYCLIC COMPOUND HAVING SELECTIVE INHIBITORY ACTION ON KRAS OVER HRAS AND NRAS” (CHUGAI SEIYAKU KABUSHIKI KAISHA, priority 2021, published 2024).
Where a SMILES comes first, the peptide text is derived from it. Bridges are numbered along the chain shown (N, C = ends). [ ]: non-standard residue; d: D form. The star is where a group is joined. hPhe(3-Cl-4-CF3) = N[C@@H](CCc1ccc(C(F)(F)F)c(Cl)c1)C(=O)O; NPrPhe(4-CF3) = CCCN[C@@H](Cc1ccc(C(F)(F)F)cc1)C(=O)O; NMeGly(cPent) = CN[C@H](C(=O)O)C1CCCC1; NMeD = CN[C@@H](CC(=O)O)C(=O)O; NMeL = CN[C@@H](CC(C)C)C(=O)O; NMeAbu = CC[C@H](NC)C(=O)O; Morpholide = C1CN(*)CCO1; Piperidide = C1CCN(*)CC1; Ac4c = NC1(C(=O)O)CCC1; NEtG = CCNCC(=O)O; Sar = CNCC(=O)O

Columns and labels:
[1] = target: GDP-bound KRAS wild-type protein (Homo sapiens, UniProt P01116); assay: Binding to KRAS by surface plasmon resonance (SPR), Single Cycle Kinetics; conditions: SPR, Single Cycle Kinetics, GDP-bound KRAS wild-type protein; read-out: KRAS KD
Chain of GDP-bound KRAS wild-type protein (P01116 whole entry): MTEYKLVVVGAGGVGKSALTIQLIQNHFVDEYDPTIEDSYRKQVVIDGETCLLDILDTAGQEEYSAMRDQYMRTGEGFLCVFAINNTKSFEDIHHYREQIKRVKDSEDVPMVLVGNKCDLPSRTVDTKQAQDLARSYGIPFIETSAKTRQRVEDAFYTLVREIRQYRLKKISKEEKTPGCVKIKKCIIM

[2] = target: GDP-bound NRAS wild-type protein (Homo sapiens, UniProt P01111); assay: Binding to NRAS by surface plasmon resonance (SPR), Single Cycle Kinetics; conditions: ratio of KD for GDP-bound NRAS wild-type protein to KD for KRAS, SPR
Chain of GDP-bound NRAS wild-type protein (P01111 whole entry): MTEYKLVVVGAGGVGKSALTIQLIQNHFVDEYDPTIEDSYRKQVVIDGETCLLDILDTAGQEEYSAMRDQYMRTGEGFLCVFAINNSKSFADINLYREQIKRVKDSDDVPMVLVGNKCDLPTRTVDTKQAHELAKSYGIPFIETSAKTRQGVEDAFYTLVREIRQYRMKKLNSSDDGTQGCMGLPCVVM

[3] = target: GDP-bound HRAS wild-type protein (Homo sapiens, UniProt P01112); assay: Binding to HRAS by surface plasmon resonance (SPR), Single Cycle Kinetics; conditions: ratio of KD for GDP-bound HRAS wild-type protein to KD for KRAS, SPR
Chain of GDP-bound HRAS wild-type protein (P01112 whole entry): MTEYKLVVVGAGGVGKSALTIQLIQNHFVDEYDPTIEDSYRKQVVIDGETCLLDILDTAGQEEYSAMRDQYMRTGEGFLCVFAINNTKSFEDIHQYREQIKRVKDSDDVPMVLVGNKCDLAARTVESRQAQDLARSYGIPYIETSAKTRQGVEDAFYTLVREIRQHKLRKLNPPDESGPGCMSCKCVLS

[4] = tested on: human lung cancer strain NCI-H441; assay: cells; conditions: NCI-H441, 96 h, read-out: NCI-H441 IC50 (nM), NCI-H441 cell proliferation, 4 days, CellTiter-Glo;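 also: cell proliferation inhibition after four days measured by CellTiter-Glo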

Row | SMILES | Kd [1] [nM] | NRAS/KRAS (KD ratio) [2] | HRAS/KRAS (KD ratio) [3] | IC50 [4] [nM]
1 | CCCN(C)C(=O)[C@@H]1CC(=O)N(C)[C@@H](COC)C(=O)N[C@@H]([C@@H](C)CC)C(=O)N(C)CC(=O)N(C)[C@H]2C/C=C\CCN(C2=O)[C@@H](Cc2ccc(C(F)(F)F)cc2)C(=O)N(C)CC(=O)N[C@@H](CCc2ccc(C(F)(F)F)c(OC)c2)C(=O)N2C[C@H](OCC)C[C@H]2C(=O)NC2(CC(C)(C)C2)C(=O)N(C)[C@@H](C2CCCC2)C(=O)N1C [PP1656] | 0.065 | AA (a compound having 20 or more is denoted as AA) | A (a compound having 10 or more and less than 20 is denoted as A) | 1.5
2 | CCO[C@@H]1C[C@H]2C(=O)NC3(CC(C)(C)C3)C(=O)N(C)[C@@H](C3CCCC3)C(=O)N(C)[C@H](C(=O)N(C)CC)CC(=O)N(C)[C@@H](C(C)C)C(=O)N[C@@H]([C@@H](C)CC)C(=O)N(C)CC(=O)N(C)[C@H]3C/C=C\CCN(C3=O)[C@@H](Cc3ccc(C(F)(F)F)cc3)C(=O)N(C)CC(=O)N[C@@H](CCc3ccc(C(F)(F)F)c(OC)c3)C(=O)N2C1 [PP1977] | 0.15 | AA (a compound having 20 or more is denoted as AA) | A (a compound having 10 or more and less than 20 is denoted as A) | 20.2
3 | CCCN1C(=O)CN(C)C(=O)CN(C)C(=O)[C@H]([C@@H](C)CC)NC(=O)[C@H](CC(C)C)N(C)C(=O)C[C@@H](C(=O)N2CCOCC2)N(C)C(=O)[C@H](C2CCCC2)N(C)C(=O)C2(CCC2)NC(=O)[C@H](CC)N(C)C(=O)[C@H](CCc2ccc(C(F)(F)F)c(Cl)c2)NC(=O)CN(C)C(=O)[C@@H]1Cc1ccc(C(F)(F)F)cc1 [PP1918] ([NMeL]I[Sar][Sar][NPrPhe(4-CF3)][Sar][hPhe(3-Cl-4-CF3)][NMeAbu][Ac4c][NMeGly(cPent)][NMeD]-Morpholide; lactam N-11) | 0.19 | B (a compound having 3 or more and less than 10 is denoted as B) | C (A compound having a KD ratio of 0.1 or more and less than 3 is denoted as C) | 32.8
4 | CCCN(C)C(=O)[C@@H]1CC(=O)N(C)[C@@H](CC2CC2)C(=O)N[C@@H]([C@@H](C)CC)C(=O)N(C)CC(=O)N(C)[C@H]2C/C=C\CCN(C2=O)[C@@H](Cc2ccc(C(F)(F)F)cc2)C(=O)N(C)CC(=O)N[C@@H](CCc2cc(F)c(C(F)(F)F)c(F)c2)C(=O)N2C[C@H](F)C[C@H]2C(=O)NC2(CC(C)(C)C2)C(=O)N(C)[C@@H](C2CCCC2)C(=O)N1C [PP1665] | 0.066 | AA (a compound having 20 or more is denoted as AA) | A (a compound having 10 or more and less than 20 is denoted as A) | 3.1
5 | CCO[C@@H]1C[C@H]2C(=O)NC3(CC(C)(C)C3)C(=O)N(C)[C@@H](C3CCCC3)C(=O)N(C)[C@H](C(=O)N(C)C)CC(=O)N(CC)[C@@H](CC(C)C)C(=O)N[C@@H]([C@@H](C)CC)C(=O)NCC(=O)N(C)[C@H]3C/C=C\CCN(C3=O)[C@@H](Cc3ccc(C(F)(F)F)cc3)C(=O)N(C)CC(=O)N[C@@H](CCc3cc(F)c(C(F)(F)F)c(F)c3)C(=O)N2C1 [PP1772] | 0.23 | B (a compound having 3 or more and less than 10 is denoted as B) | B (a compound having 3 or more and less than 10 is denoted as B) | 13.4
6 | CCO[C@@H]1C[C@H]2C(=O)NC3(CC(C)(C)C3)C(=O)N(C)[C@@H](C3CCCC3)C(=O)N(CC)[C@H](C(=O)N(C)C)CC(=O)N(C)[C@@H](CC)C(=O)N[C@@H]([C@@H](C)CC)C(=O)N(C)CC(=O)N(C)[C@H]3C/C=C\CCN(C3=O)[C@@H](Cc3ccc(C(F)(F)F)cc3)C(=O)N(C)CC(=O)N[C@@H](CCc3cc(F)c(C(F)(F)F)c(F)c3)C(=O)N2C1 [PP1768] | 0.32 | A (a compound having 10 or more and less than 20 is denoted as A) | A (a compound having 10 or more and less than 20 is denoted as A) | 4.9
7 | CCCN1C(=O)CN(C)C(=O)CN(C)C(=O)[C@H]([C@@H](C)CC)NC(=O)[C@H](CC(C)C)N(C)C(=O)C[C@@H](C(=O)N2CCCCC2)N(C)C(=O)[C@H](C2CCCC2)N(C)C(=O)C2(CCC2)NC(=O)[C@@H]2CCCN2C(=O)[C@H](CCc2ccc(C(F)(F)F)c(Cl)c2)NC(=O)CN(C)C(=O)[C@@H]1Cc1ccc(C(F)(F)F)cc1 [PP1930] ([NMeL]I[Sar][Sar][NPrPhe(4-CF3)][Sar][hPhe(3-Cl-4-CF3)]P[Ac4c][NMeGly(cPent)][NMeD]-Piperidide; lactam N-11) | 0.23 | B (a compound having 3 or more and less than 10 is denoted as B) | C (A compound having a KD ratio of 0.1 or more and less than 3 is denoted as C) | 7
8 | CCO[C@@H]1C[C@H]2C(=O)NC3(CC(C)(C)C3)C(=O)N(C)[C@@H](C3CCCC3)C(=O)N(C)[C@H](C(=O)N(C)C)CC(=O)N(C)[C@@H](CC(C)C)C(=O)N[C@@H]([C@@H](C)CC)C(=O)N(C)CC(=O)N(C)[C@H]3C/C=C\CCN(C3=O)[C@@H](Cc3ccc(C(F)(F)F)cc3)C(=O)N(C)CC(=O)N[C@@H](CCc3ccc(C(F)(F)F)c(Cl)c3)C(=O)N2C1 [PP1751] | 0.047 | A (a compound having 10 or more and less than 20 is denoted as A) | A (a compound having 10 or more and less than 20 is denoted as A) | 2.2
9 | CC[C@H](C)[C@@H]1NC(=O)[C@H](CC2CCC2)N(C)C(=O)C[C@@H](C(=O)N(C)C)N(C)C(=O)[C@H](C2CCCC2)N(C)C(=O)C2(CC(C)(C)C2)NC(=O)[C@@H]2CC(F)(F)CN2C(=O)[C@H](CCc2cc(F)c(C(F)(F)F)c(F)c2)NC(=O)CN(C)C(=O)[C@H](Cc2ccc(C(F)(F)F)cc2)N2CC/C=C\C[C@@H](C2=O)N(C)C(=O)CN(C)C1=O [PP1716] | 0.099 | AA (a compound having 20 or more is denoted as AA) | A (a compound having 10 or more and less than 20 is denoted as A) | 3.8
10 | CCCN1C(=O)CN(C)C(=O)CN(C)C(=O)[C@H]([C@@H](C)CC)NC(=O)[C@H](CC(C)C)N(C)C(=O)C[C@@H](C(=O)N2CCOCC2)N(C)C(=O)[C@H](C2CCCC2)N(C)C(=O)C2(CCC2)NC(=O)[C@@H]2CCCN2C(=O)[C@H](CCc2ccc(C(F)(F)F)c(Cl)c2)NC(=O)CN(CC)C(=O)[C@@H]1Cc1ccc(C(F)(F)F)cc1 [PP1950] ([NMeL]I[Sar][Sar][NPrPhe(4-CF3)][NEtG][hPhe(3-Cl-4-CF3)]P[Ac4c][NMeGly(cPent)][NMeD]-Morpholide; lactam N-11) | 1.9 | B (a compound having 3 or more and less than 10 is denoted as B) | C (A compound having a KD ratio of 0.1 or more and less than 3 is denoted as C) | 32.5
11 | CCO[C@@H]1C[C@H]2C(=O)NC3(CC(C)(C)C3)C(=O)N(C)[C@@H](C(CC)CC)C(=O)N(C)[C@H](C3CCC3)CC(=O)N(C)[C@@H](CC3CC3)C(=O)N[C@@H]([C@@H](C)CC)C(=O)N(C)CC(=O)N(C)[C@H]3C/C=C\CCN(C3=O)[C@@H](Cc3ccc(C(F)(F)F)cc3)C(=O)N(C)CC(=O)N[C@@H](CCc3cc(F)c(C(F)(F)F)c(F)c3)C(=O)N2C1 [PP1634] | 5.1 | A (a compound having 10 or more and less than 20 is denoted as A) | A (a compound having 10 or more and less than 20 is denoted as A) | 144
12 | CCOC[C@H]1C(=O)N[C@@H]([C@@H](C)CC)C(=O)N(C)CC(=O)N(C)[C@H]2C/C=C\CCN(C2=O)[C@@H](Cc2ccc(C(F)(F)F)cc2)C(=O)N(C)CC(=O)N[C@@H](CCc2ccc(C(F)(F)F)c(OC)c2)C(=O)N2C[C@@H](C)C[C@H]2C(=O)NC2(CC(C)(C)C2)C(=O)N(C)[C@@H](C2CCCC2)C(=O)N(C)[C@H](C(=O)N(C)CC)CC(=O)N1C [PP1993] | 0.12 | A (a compound having 10 or more and less than 20 is denoted as A) | A (a compound having 10 or more and less than 20 is denoted as A) | 13.3
13 | CCC[C@H]1C(=O)N[C@@H]([C@@H](C)CC)C(=O)N(C)CC(=O)N(C)[C@H]2C/C=C\CCN(C2=O)[C@@H](Cc2ccc(C(F)(F)F)cc2)C(=O)N(C)CC(=O)N[C@@H](CCc2ccc(C(F)(F)F)c(OC)c2)C(=O)N2C[C@H](OCC)C[C@H]2C(=O)NC2(CC(C)(C)C2)C(=O)N(C)[C@@H](C2CCCC2)C(=O)N(C)[C@H](C(=O)N(C)CC)CC(=O)N1C [PP1676] | 0.12 | A (a compound having 10 or more and less than 20 is denoted as A) | A (a compound having 10 or more and less than 20 is denoted as A) | 5
14 | CCO[C@@H]1C[C@H]2C(=O)NC3(CC(C)(C)C3)C(=O)N(C)[C@@H](C3CCCC3)C(=O)N(C)[C@H](C(=O)N(C)CC)CC(=O)N(C)[C@@H](CC3CC3)C(=O)N[C@@H]([C@@H](C)CC)C(=O)N(C)CC(=O)N(C)[C@H]3C/C=C\CCN(C3=O)[C@@H](Cc3ccc(C(F)(F)F)cc3)C(=O)N(C)CC(=O)N[C@@H](CCc3cc(F)c(C(F)(F)F)c(F)c3)C(=O)N2C1 [PP1648] | 0.11 | A (a compound having 10 or more and less than 20 is denoted as A) | A (a compound having 10 or more and less than 20 is denoted as A) | 2.1
15 | CCCN(C)C(=O)[C@@H]1CC(=O)N(C)[C@@H](COC)C(=O)N[C@@H]([C@@H](C)CC)C(=O)N(C)CC(=O)N(C)[C@H]2C/C=C\CCN(C2=O)[C@@H](Cc2ccc(C(F)(F)F)cc2)C(=O)N(C)CC(=O)N[C@@H](CCc2cc(F)c(C(F)(F)F)c(F)c2)C(=O)N2CCC[C@H]2C(=O)NC2(CC(C)(C)C2)C(=O)N(C)[C@@H](C2CCCC2)C(=O)N1C [PP1729] | 0.2 | AA (a compound having 20 or more is denoted as AA) | A (a compound having 10 or more and less than 20 is denoted as A) | 20.6
